pIC50: −log10 of the molar value. “And” between values parts separate entries of the source, which are not always exact repeats. Equal entries are not always repeated. Where two headings read alike, the source gives them in different places.
How the values were obtained:
human DPP1 enzyme [1] = target: T1, human DPP1 enzyme (Homo sapiens, UniProt P53634); assay: Human DPP1 Enzyme Single-Point Percent Inhibition Testing (HL-60 lysate); format: biochemical; set-up: A crude lysate of HL-60 cells (ATCC; Manassas, VA) was used as a source of human DPP1 enzyme; host or cells: HL-60 cells (crude lysate); settings: final compound concentration of 10 nM, 400 μM H-Gly-Arg-AMC, n = 1
Procedure, shortened: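 Enzyme source was HL-60 cell lysate in MES pH 6.0 buffer with NaCl and DTT, pre-incubated 10 min at 37° C with 10 nM compound (final, 1% DMSO). Cleavage of 400 μM H-Gly-Arg-AMC was followed at 350/450 nm over 90 min at 37° C, and percent inhibition was taken against vehicle wells.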
Target sequence in this assay (P53634 25-463): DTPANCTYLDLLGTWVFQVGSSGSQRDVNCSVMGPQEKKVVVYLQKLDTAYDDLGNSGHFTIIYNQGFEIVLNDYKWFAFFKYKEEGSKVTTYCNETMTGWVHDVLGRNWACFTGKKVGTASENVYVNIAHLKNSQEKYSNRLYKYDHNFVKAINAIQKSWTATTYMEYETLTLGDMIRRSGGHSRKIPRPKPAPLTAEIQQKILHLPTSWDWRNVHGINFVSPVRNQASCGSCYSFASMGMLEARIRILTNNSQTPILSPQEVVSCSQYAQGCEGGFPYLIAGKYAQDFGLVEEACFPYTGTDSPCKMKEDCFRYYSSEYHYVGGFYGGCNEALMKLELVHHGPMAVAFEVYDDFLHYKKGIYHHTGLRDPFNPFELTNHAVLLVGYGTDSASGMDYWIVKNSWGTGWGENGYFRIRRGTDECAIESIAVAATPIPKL

DPP1 in HL-60 cells [2] = target: T2, DPP1 in HL-60 cells (Homo sapiens, UniProt P53634); assay: DPP1 Cell IC50 assay; format: cell-based; set-up: host or cells: HL-60 cells; settings: 60 min pre-incubation, H-Gly-Phe-AFC substrate, average of n runs
T2 sequence (P53634 25-463): as above
Procedure, shortened: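 HL-60 cells in PBS (5×10^5 live cells per mL) pre-incubated with compound (0.5% DMSO) 60 min at 37° C, 5% CO2, then H-Gly-Phe-AFC substrate (500 μM stock) added for 30 min. Fluorescence at 400/505 nm; % inhibition vs vehicle wells, IC50 from four-parameter logistic fit.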

human DPP1 enzyme [3] = target: T1, human DPP1 enzyme; assay: Human DPP1 Enzyme IC50 Assay; format: biochemical; set-up: was first proteolytically processed into its mature form using recombinant human cathepsin L; purchased R&D Systems
Procedure, shortened: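 Recombinant human DPP1, pre-activated with cathepsin L (pH 4.5), was preincubated with compound 10 min at 37 °C in MES pH 6.0, 50 mM NaCl, 5 mM DTT, 1% DMSO. Cleavage of 400 μM (final) H-Gly-Arg-AMC followed by fluorescence (350/450 nm) over 90 min at 37 °C; IC50 from four-parameter logistic fit versus no-compound control.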
Target sequence in this assay (P53634 25-134 limits assumed): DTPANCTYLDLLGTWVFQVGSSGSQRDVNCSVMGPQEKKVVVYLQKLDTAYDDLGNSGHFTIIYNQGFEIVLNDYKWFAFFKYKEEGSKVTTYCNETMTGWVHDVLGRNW
Target sequence in this assay (P53634 231-394 limits assumed): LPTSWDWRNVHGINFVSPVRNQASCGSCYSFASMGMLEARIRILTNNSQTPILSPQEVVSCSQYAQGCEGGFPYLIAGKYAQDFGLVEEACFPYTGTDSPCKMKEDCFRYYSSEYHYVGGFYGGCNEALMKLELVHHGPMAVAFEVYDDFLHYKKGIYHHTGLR
Target sequence in this assay (P53634 395-463 limits assumed): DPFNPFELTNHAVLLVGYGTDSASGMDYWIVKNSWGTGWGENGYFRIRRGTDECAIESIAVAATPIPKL

DPP1 in HL-60 cells [4] = target: T2, DPP1 in HL-60 cells; assay: DPP1 Cell Single-Point Percent Inhibition Testing; format: cell-based; set-up: host or cells: HL-60 cells; settings: final compound concentration 5 nM, n = 1
Procedure, shortened: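 HL-60 cells in unsupplemented RPMI preincubated 60 min at 37 °C with test article (5 nM final, 0.1% DMSO), then given cell-permeable H-Gly-Phe-AFC (100 μM final) for 30 min. Fluorescence at 400/505 nm; percent inhibition versus vehicle after subtracting cell-free background and 10 μM brensocatib non-specific signal.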

[5] = read-out: Avg. IC50 (DPP1 Cell IC50 value ranges)
[6] = activated recombinant human DPP1, 400 μM H-Gly-Arg-AMC, 10 minutes pre-incubation at 37° C., pH 6.0, average of n runs, read-out: Avg. IC50 (Human DPP1 enzyme IC50 value ranges)
[7] = Avg. IC50 (DPP1 Cell IC50 value ranges)

Row | Structure (SMILES) | inhibition at 0.01 µM (human DPP1 enzyme [1]) [%] | pIC50 (DPP1 in HL-60 cells [2]; [5]) | pIC50 (human DPP1 enzyme [3]; [6]) | inhibition at 0.005 µM (DPP1 in HL-60 cells [4]) [%] | pIC50 (DPP1 in HL-60 cells [2]; [7]) | pIC50 (human DPP1 enzyme [3])
1 | N#C[C@H](Cc1ccc(-c2ccc(S(=O)(=O)N3CCC3)cc2)cc1)NC(=O)[C@@H]1CNCCCO1 [Compound 19, (S)—N—((S)-2-(4′-(azetidin-1-ylsulfonyl)-[1,1′-biphenyl]-4-yl)-1-cyanoethyl)-1,4-oxazepane-2-carboxamide] | ≤ 40 | < 8.60 | < 7.82 | ≤ 76.5 | – | –
2 | CO[C@@H]1CCNC[C@@H](C(=O)N[C@H](C#N)Cc2ccc(-c3ccc4c(c3)C3(CCN(C5COC5)CC3)OC4)cc2F)OC1 [Compound F6] | ≥ 66.7 | < 8.60 | > 8.30 | ≤ 76.5 | – | –
3 | COC1CNC[C@@H](C(=O)N[C@H](C#N)Cc2ccc(-c3cc4c(C)nc(C)cn4c3)cc2F)OC1 (stereo partly shown) [Compound A88] | ≥ 66.7 | 8.60 to 9.00 | > 8.30 | 76.5 to 93.9 | – | –
4 | N#Cc1ccc2c(c1)COc1cc(C[C@@H](C#N)NC(=O)[C@@H]3CNCCCO3)c(F)cc1-2 [Compound B32] | 40 to 66.7 | – | – | 76.5 to 93.9 | 8.60 to 9.00 | 7.82 to 8.30
5 | CCN1C(=O)Cc2ccc(-c3ccc(C[C@@H](C#N)NC(=O)[C@@H]4CN[C@@H](C)[C@@H](O)CO4)cc3)cc21 [Compound G9] | ≤ 40 | < 8.60 | < 7.82 | ≤ 76.5 | – | –
6 | CO[C@H]1CCO[C@H](C(=O)N[C@H](C#N)Cc2ccc(-c3ccc4c(c3)C3(CCN(C5COC5)CC3)OC4)cc2F)CNC1 [Compound F5] | ≥ 66.7 | 8.60 to 9.00 | > 8.30 | ≤ 76.5 | – | –
7 | CO[C@@H]1CCNC[C@@H](C(=O)N[C@H](C#N)Cc2ccc(-c3ccc4cnn(C)c4c3)cc2)OC1 [Compound H5] | ≥ 66.7 | 8.60 to 9.00 | 7.82 to 8.30 | 76.5 to 93.9 | – | –
8 | N#Cc1ccc2c(c1)CSc1cc(C[C@@H](C#N)NC(=O)[C@@H]3CNCCCCO3)c(F)cc1-2 [Compound B17] | 40 to 66.7 | < 8.60 | 7.82 to 8.30 | ≤ 76.5 | – | –
9 | N#C[C@H](Cc1ccc(-c2ccn3ccnc3c2)cc1)NC(=O)[C@@H]1CNCCCO1 [Compound A142] | ≤ 40 | < 8.60 | < 7.82 | ≤ 76.5 | – | –
10 | CCCN1CCC2(CC1)SCCc1ccc(-c3ccc(C[C@@H](C#N)NC(=O)[C@@H]4CNCCCO4)cc3)cc12 [Compound I3] | ≥ 66.7 | < 8.60 | 7.82 to 8.30 | ≤ 76.5 | – | –
11 | CCN1C(=O)Cc2ccc(-c3ccc(C[C@@H](C#N)NC(=O)[C@@H]4CNCCCO4)c(F)c3)cc21 [Compound G12] | 40 to 66.7 | < 8.60 and 8.60 to 9.00 | 7.82 to 8.30 | ≤ 76.5 | – | –
12 | N#C[C@H](Cc1cc2c(cc1F)-c1cc3c(cc1CO2)COC31CCN(C2COC2)CC1)NC(=O)[C@@H]1CNCCCCO1 [Compound C32] | ≥ 66.7 | < 8.60 | > 8.30 | ≤ 76.5 | – | –
13 | CN1CC[C@]2(C1)C(=O)OCc1ccc(-c3ccc(C[C@@H](C#N)NC(=O)[C@@H]4CNCCCO4)cc3)cc12 [Compound I2] | 40 to 66.7 | < 8.60 | 7.82 to 8.30 | ≤ 76.5 | – | –
14 | C[C@@H]1NC[C@@H](C(=O)N[C@H](C#N)Cc2ccc(-c3ccc4c(n3)CCCN4)cc2)OC[C@@H]1O [Compound A105] | ≤ 40 | < 8.60 | < 7.82 | ≤ 76.5 | – | –
15 | COC1CNC[C@@H](C(=O)N[C@H](C#N)Cc2ccc(-c3ccc4nnn(C)c4c3)cc2)OC1 (stereo partly shown) [Compound H12] | ≥ 66.7 | < 8.60 and 8.60 to 9.00 | > 8.30 | ≤ 76.5 | – | –
16 | Cn1c(=O)oc2cc3c(cc21)-c1cc(F)c(C[C@@H](C#N)NC(=O)[C@@H]2CNCCCCO2)cc1SC3 [Compound C8] | ≥ 66.7 | 8.60 to 9.00 | > 8.30 | ≤ 76.5 | – | –
17 | CCN1C(=O)Cc2ccc(-c3ccc(C[C@@H](C#N)NC(=O)[C@@H]4CNCC[C@@H](OC)CO4)c(F)c3)cc21 [Compound G2] | ≥ 66.7 | 8.60 to 9.00 | > 8.30 | ≤ 76.5 | – | –
18 | N#C[C@H](Cc1cc2c(cc1F)-c1cc3c(cc1CO2)COC31CCN(C2COC2)CC1)NC(=O)[C@@H]1CNCCCO1 [Compound C31] | ≥ 66.7 | < 8.60 | > 8.30 | ≤ 76.5 | – | –
19 | Cc1nc(C)c2cc(-c3ccc(C[C@@H](C#N)NC(=O)[C@@H]4CNCCCCO4)cc3)cn2c1C [Compound A138] | ≤ 40 | > 9.00 | < 7.82 | 76.5 to 93.9 | – | –
20 | C[C@@H]1NC[C@@H](C(=O)N[C@H](C#N)Cc2ccc(-c3cnc4c(n3)CCCC4)cc2F)OC[C@@H]1O [Compound A109] | 40 to 66.7 | < 8.60 and 8.60 to 9.00 | 7.82 to 8.30 and > 8.30 | ≤ 76.5 | – | –
21 | Cc1ncc(C)n2cc(-c3ccc(C[C@@H](C#N)NC(=O)[C@@H]4CNCCCCO4)cc3)cc12 [Compound A137] | ≤ 40 | 8.60 to 9.00 | < 7.82 | 76.5 to 93.9 | – | –
22 | N#Cc1ccc2c(c1)-c1cc(F)c(CC(C#N)NC(=O)[C@@H]3CNCCCO3)cc1OC2 (stereo partly shown) [Compound B33] | ≤ 40 | – | – | ≤ 76.5 | < 8.60 | < 7.82
23 | Cn1c(=O)oc2ccc3c(c21)COc1cc(CC(C#N)NC(=O)[C@@H]2CNCCCO2)c(F)cc1-3 (stereo partly shown) [Compound C29] | ≤ 40 | < 8.60 and 8.60 to 9.00 | < 7.82 | ≤ 76.5 | – | –
24 | CCN1C(=O)Cc2ccc(-c3ccc(C[C@@H](C#N)NC(=O)[C@@H]4CN[C@@H](C)[C@@H](O)CO4)c(F)c3)cc21 [Compound G10] | 40 to 66.7 | < 8.60 | 7.82 to 8.30 | ≤ 76.5 | – | –
25 | CO[C@H]1CCO[C@H](C(=O)N[C@H](C#N)Cc2ccc(-c3cc4c(C)nc(C)cn4c3)cc2)CNC1 [Compound A92] | ≤ 40 | < 8.60 and 8.60 to 9.00 | < 7.82 | ≤ 76.5 | – | –
26 | C[C@@H]1NC[C@@H](C(=O)N[C@H](C#N)Cc2ccc(-c3ccc4cnn(C)c4c3)cc2F)OC[C@@H]1O [Compound H31] | 40 to 66.7 | 8.60 to 9.00 | 7.82 to 8.30 and < 7.82 | ≤ 76.5 | – | –
27 | CCN1C(=O)Cc2ccc(-c3ccc(C[C@@H](C#N)NC(=O)[C@@H]4CNCCCO4)cc3)cc21 [Compound G11] | ≤ 40 | < 8.60 | < 7.82 | ≤ 76.5 | – | –
28 | CN1CCC(N2CC[C@]3(COCc4ccc(-c5ccc(C[C@@H](C#N)NC(=O)[C@@H]6CNCCCO6)cc5)cc43)C2)CC1 [Compound I8] | ≥ 66.7 | < 8.60 | 7.82 to 8.30 | ≤ 76.5 | – | –

— patent publication US20260008760A1, “DIPEPTIDYL PEPTIDASE 1 INHIBITORS AND USES THEREOF” (Insmed Incorporated, priority 2024, published 2026)
